Target: T1, Human Aryl Hydrocarbon Receptor (AhR) (Homo sapiens, UniProt P35869)
T1 construct: purchased INDIGO Bioscience IB06001-32; host or cells: AhR Reporter Cell (the kit's proprietary reporter cells)
T1 sequence (P35869 11-848): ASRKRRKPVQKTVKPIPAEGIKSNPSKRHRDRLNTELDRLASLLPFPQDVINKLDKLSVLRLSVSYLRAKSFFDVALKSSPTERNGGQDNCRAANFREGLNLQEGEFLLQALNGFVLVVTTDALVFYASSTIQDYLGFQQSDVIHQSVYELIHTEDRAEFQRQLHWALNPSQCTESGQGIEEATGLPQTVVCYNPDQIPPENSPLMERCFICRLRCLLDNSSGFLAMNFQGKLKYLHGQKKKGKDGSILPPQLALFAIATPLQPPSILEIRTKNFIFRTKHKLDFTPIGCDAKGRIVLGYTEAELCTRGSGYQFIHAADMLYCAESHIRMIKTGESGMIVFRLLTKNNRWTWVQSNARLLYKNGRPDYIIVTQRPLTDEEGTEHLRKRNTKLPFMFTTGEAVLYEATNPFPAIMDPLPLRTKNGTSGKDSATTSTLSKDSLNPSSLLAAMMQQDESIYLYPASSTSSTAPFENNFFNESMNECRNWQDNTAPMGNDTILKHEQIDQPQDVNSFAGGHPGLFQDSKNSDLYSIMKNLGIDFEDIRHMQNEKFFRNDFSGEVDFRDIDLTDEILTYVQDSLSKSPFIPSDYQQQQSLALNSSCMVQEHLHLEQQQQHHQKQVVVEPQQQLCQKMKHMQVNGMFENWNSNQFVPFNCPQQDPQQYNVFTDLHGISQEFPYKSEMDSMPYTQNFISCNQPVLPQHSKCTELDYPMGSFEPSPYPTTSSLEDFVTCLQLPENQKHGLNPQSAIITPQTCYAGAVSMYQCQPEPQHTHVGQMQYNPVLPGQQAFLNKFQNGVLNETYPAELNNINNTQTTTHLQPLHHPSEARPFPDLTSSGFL
Assay: AhR reporter assay (Human Aryl Hydrocarbon Receptor (AhR) Reporter Assay System, INDIGO Bioscience)
Type: cell-based
Details: AHR inhibition at 10 nM test compound; AhR Reporter Cells activated with 200 μM kynurenic acid, 24 hours; firefly luciferase; normalized by positive and negative controls
Description: The AhR reporter assay was performed following the protocol of the Human Aryl Hydrocarbon Receptor (AhR) Reporter Assay System (INDIGO Bioscience, #IB06001-32). AhR Reporter Cell was thawed and pre-incubated in Cell Recovery Medium (CRM) for 6 hours. The media was then removed and the cells were incubated with Compound Screening Medium (CSM) supplemented with 200 μM kynurenic acid for 24 hours in the absence (negative control) or presence of 10 nM test compounds. For positive inhibition control, cells activated with 200 μM kynurenic acid were incubated in the presence of literature AHR antagonists; alternatively un-activated cells were used as positive inhibition control. Following 24 hours incubation, the media was removed and Luciferase Detection Reagent (LDR) added. The firefly luciferase activity was quantified using a plate reader. Results were normalized by positive and negative controls.
The results of AHR inhibition at 10 nM for compounds as disclosed herein is reported in the below table.

Row | SMILES | inhibition at 0.01 µM [%]
1 | C[C@@H](CO)n1cnc2c(-c3cnn(C)c3)nc(-c3ccc(-c4ccc(Cl)cc4)nc3)cc2c1=O [Compound 7] | 90
2 | C[C@@H](CO)n1cnc2c(-c3cnn(C)c3)nc(-c3ccc(C4=CCOCC4)nc3)cc2c1=O [Compound 9] | 29
3 | Cc1nn(C)c2cc(-c3cc4c(=O)n([C@@H](C)CO)cnc4c(-c4cnn(C)c4)n3)ccc12 [Compound 10] | 28
4 | C[C@@H](CO)n1cnc2c(-c3cnn(C)c3)nc(N3CC4CCC(C3)N4c3ccc(F)cc3)cc2c1=O [Compound 17] | 35
5 | C[C@@H](CO)n1cnc2c(-c3cnn(C)c3)nc(/C=C/c3ccc(F)cc3)cc2c1=O [Compound 20] | 70
6 | C[C@@H](CO)n1cnc2c(-c3cnn(C)c3)nc(-c3ccc(C(=O)N4CCOCC4)cc3)cc2c1=O [Compound 21] | -0.3
7 | C[C@@H](CO)n1cnc2c(-c3cnn(C)c3)nc(-c3ccc(N4CCOCC4)nc3)cc2c1=O [Compound 25] | 8
8 | CC1COCCN1c1ccc(-c2cc3c(=O)n([C@@H](C)CO)cnc3c(-c3cnn(C)c3)n2)cn1 (stereo partly shown) [Compound 27] | 45
9 | C[C@@H](CO)n1cnc2c(-c3cnn(C)c3)nc(-c3ccc(C(=O)N4CCC(O)C4)cc3)cc2c1=O (stereo partly shown) [Compound 29] | 8
10 | C[C@@H](CO)n1cnc2c(-c3cnn(C)c3)nc(-c3ccc(C(=O)N4CCC(N)CC4)cc3)cc2c1=O [Compound 30] | -5
11 | C[C@@H](CO)n1cnc2c(-c3cnn(C)c3)nc(-c3ccc(C(=O)N4CCC(N)C4)cc3)cc2c1=O (stereo partly shown) [Compound 34] | 6
12 | C[C@@H](CO)n1cnc2c(-c3cnn(C)c3)nc(-c3ccc(NC(=O)CN4CCOCC4)cc3)cc2c1=O [Compound 42] | 16
13 | C[C@@H](CO)n1cnc2c(-c3cnn(C)c3)nc(N3Cc4cccc(F)c4C3)cc2c1=O [Compound 52] | 35
14 | Cc1cc(N2CCOCC2)ccc1-c1cc2c(=O)n([C@@H](C)CO)cnc2c(-c2cnn(C)c2)n1 [Compound 54] | 1
15 | C[C@@H](CO)NC(=O)c1cc(-c2ccc(N3CCOCC3)cc2)nc(-c2cnn(C)c2)n1 [Compound 62] | 29
16 | C[C@@H](CO)NC(=O)c1cc(N2Cc3ccccc3C2)nc(-c2cnn(C)c2)n1 [Compound 63] | 58
17 | C[C@@H](CO)NC(=O)c1cc(N2CCN(c3ccc(F)cc3)CC2)nc(-c2cnn(C(F)(F)F)c2)n1 [Compound 65] | 7
18 | Cc1nn(C)c2cc(-c3cc(C(=O)N[C@@H](C)CO)nc(-c4cnn(C)c4)n3)ccc12 [Compound 67] | 33
19 | C[C@@H](CO)NC(=O)c1cc(-c2ccc(-c3cccc(F)c3)nc2)nc(-c2cnn(C)c2)n1 [Compound 68] | 62
20 | C[C@@H](CO)NC(=O)c1cc(-c2ccc(-c3ccc(F)nc3)nc2)nc(-c2cnn(C)c2)n1 [Compound 69] | 60
21 | C[C@@H](CO)NC(=O)c1cc(-c2ccc(-c3ccc(Cl)cc3)nc2)nc(-c2cnn(C)c2)n1 [Compound 70] | 87
22 | C[C@@H](CO)NC(=O)c1cc(-c2ccc(C3CCOCC3)cc2)nc(-c2cnn(C)c2)n1 [Compound 71] | 37
23 | C[C@@H](CO)NC(=O)c1cc(N2CC3CCC(C2)N3c2ccc(F)cc2)nc(-c2cnn(C)c2)n1 [Compound 74] | 13
24 | C[C@@H](CO)NC(=O)c1cc(N2CCN(C(=O)c3ccc(F)cc3)CC2)nc(-c2cnn(C)c2)n1 [Compound 75] | 24
25 | C[C@@H]1CN(c2ccc(F)cc2)CCN1c1cc(C(=O)N[C@@H](C)CO)nc(-c2cnn(C)c2)n1 [Compound 76] | 1

Further lines, results first:

Row | inhibition at 0.01 µM [%] | SMILES
26 | 56 | C[C@@H](CO)n1cnc2c(-c3cnn(C)c3)nc(-c3ccc(-c4ccccc4F)nc3)cc2c1=O [Compound 1]
27 | 51 | C[C@@H](CO)n1cnc2c(-c3cnn(C)c3)nc(/C=C/c3ccccc3)cc2c1=O [Compound 2]
28 | 66 | C[C@@H](CO)n1cnc2c(-c3cnn(C)c3)nc(-c3ccc(N4CCOCC4)cc3)cc2c1=O [Compound 3]
29 | 53 | C[C@@H](CO)n1cnc2c(-c3cnn(C)c3)nc(-c3ccc(N4CC5CCC(C4)O5)cc3)cc2c1=O [Compound 4]
30 | 40 | C[C@@H](CO)n1cnc2c(-c3cnn(C)c3)nc(-c3ccc(C4CCOCC4)cc3)cc2c1=O [Compound 5]
31 | 96 | C[C@@H](CO)n1cnc2c(-c3cnn(C)c3)nc(-c3ccc(-c4ccc(F)cc4)nc3)cc2c1=O [Compound 6]
32 | 83 | C[C@@H](CO)n1cnc2c(-c3cnn(C)c3)nc(-c3ccc(-c4ccc(F)nc4)nc3)cc2c1=O [Compound 8]
33 | 3 | C[C@@H](CO)n1cnc2c(-c3cnn(C)c3)nc(-c3ccc(C4CCOCC4)nc3)cc2c1=O [Compound 11]
34 | 72 | C[C@@H](CO)n1cnc2c(-c3cnn(C)c3)nc(-c3ccc(-c4cccc(F)c4)nc3)cc2c1=O [Compound 12]
35 | 64 | C[C@@H](CO)n1cnc2c(-c3cnn(C)c3)nc(-c3ccc(N4CCCCC4)cc3)cc2c1=O [Compound 13]
36 | 85 | C[C@@H](CO)n1cnc2c(-c3cnn(C)c3)nc(N3CCN(c4ccc(F)cc4)CC3)cc2c1=O [Compound 14]
37 | 99 | C[C@@H](CO)n1cnc2c(-c3cnn(C)c3)nc(N3Cc4ccccc4C3)cc2c1=O [Compound 15]
38 | 82 | C[C@@H](CO)n1cnc2c(-c3cnn(C)c3)nc(N3CC=C(c4ccc(F)cc4)CC3)cc2c1=O [Compound 16]
39 | 24 | C[C@@H](CO)n1cnc2c(-c3cnn(C)c3)nc(-c3cnc(N4CCOCC4)nc3)cc2c1=O [Compound 26]
40 | -5 | C[C@@H](CO)n1cnc2c(-c3cnn(C)c3)nc(-c3ccc(C(=O)N4CCCNCC4)cc3)cc2c1=O [Compound 28]
41 | 24 | C[C@@H](CO)n1cnc2c(-c3cnn(C)c3)nc(-c3ccc(N4CCN(S(C)(=O)=O)CC4)cc3)cc2c1=O [Compound 31]
42 | -16 | C[C@@H](CO)n1cnc2c(-c3cnn(C)c3)nc(-c3ccc(C(=O)N4CCNCC4)cc3)cc2c1=O [Compound 32]
43 | 5 | C[C@@H](CO)n1cnc2c(-c3cnn(C)c3)nc(-c3ccc(C(=O)N4CCC(O)CC4)cc3)cc2c1=O [Compound 35]
44 | -4 | C[C@@H](CO)n1cnc2c(-c3cnn(C)c3)nc(-c3ccc(NC(=O)CN4CCOCC4)nc3)cc2c1=O [Compound 39]
45 | 39 | C[C@@H](CO)n1cnc2c(-c3cnn(C)c3)nc(-c3ccc(-c4cncc(F)c4)nc3)cc2c1=O [Compound 41]
46 | 44 | C[C@@H](CO)n1cnc2c(-c3cnn(C)c3)nc(-c3ccc(-c4ccc(=O)n(C)c4)cc3)cc2c1=O [Compound 44]
47 | 99 | C[C@@H](CO)n1cnc2c(-c3cnn(C)c3)nc(N3Cc4ccc(F)cc4C3)cc2c1=O [Compound 56]
48 | 29 | Cc1cc(-c2cc3c(=O)n([C@@H](C)CO)cnc3c(-c3cnn(C)c3)n2)ccc1N1CCOCC1 [Compound 57]
49 | 24 | C[C@@H](CO)NC(=O)c1cc(-c2ccc(-c3ccccc3F)nc2)nc(-c2cnn(C)c2)n1 [Compound 59]
50 | 21 | C[C@@H](CO)NC(=O)c1cc(N2CCN(c3ccc(F)cc3)CC2)nc(-c2cnn(C)c2)n1 [Compound 60]
51 | 62 | C[C@@H](CO)NC(=O)c1cc(-c2ccc(-c3ccc(F)cc3)nc2)nc(-c2cnn(C)c2)n1 [Compound 61]
52 | 49 | C[C@@H](CO)NC(=O)c1cc(N2Cc3ccccc3C2=O)nc(-c2cnn(C)c2)n1 [Compound 64]
53 | 69 | C[C@@H](CO)NC(=O)c1cc(N2CCN(c3ccc(F)cc3)CC2)nc(-c2cccc(F)c2)n1 [Compound 66]
54 | 13 | C[C@@H](CO)NC(=O)c1cc(N2CCN(c3ccc(F)cc3)[C@@H](C)C2)nc(-c2cnn(C)c2)n1 [Compound 72]
55 | 23 | C[C@@H]1CN(c2cc(C(=O)N[C@@H](C)CO)nc(-c3cnn(C)c3)n2)CCN1c1ccc(F)cc1 [Compound 73]
